From patent US20190374533A1, “COMPOUNDS AND METHODS FOR INHIBITING NHE-MEDIATED ANTIPORT IN THE TREATMENT OF DISORDERS ASSOCIATED WITH FLUID RETENTION OR SALT OVERLOAD AND GASTROINTESTINAL TRACT DISORDERS” (Ardelyx, Inc., priority 2008, published 2019)
Counter-ions that a name gives are not always drawn. Like-named read-outs stand apart in the source and are kept apart here.

Columns and labels:
[1] = human absorption data; cited from earlier work
rat NHE-3 = target: T1, rat NHE-3 (Rattus norvegicus, UniProt P26433); assay: Cell-based assay of NHE-3 activity (Pharmacological Test Example 1); details: for IC50: read-out: rat NHE-3 Average pIC50 (converted)
T1 construct: expressed in transfected cells; host or cells: Opossum kidney (OK) cells (ATCC), electroporated
Summary of the method: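 OK cells electroporated with rat NHE-3, loaded with 5 uM BCECF-AM in NH4Cl-HEPES (pH 7.4) for 30 min at room temperature, then acid-loaded 10 min in Na+-free choline buffer. Na+-dependent H+ antiport read as initial rate of pH-dye change; pIC50 from 3-6 replicate averages.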

fecal water content = assay: Pharmacodynamic model: effect of test compounds on fecal water content; format: in vivo, rat; details: female Sprague Dawley rats, 3 mg/kg oral, feces collected 16 hrs; for % Fecal water: mean of 6
Experimental: Normal female Sprague Dawlev rats (Charles-River laboratories international, Hollister, Calif.), 7-8 weeks old with body weight 175-200 g were acclimated for at least 3 days before proceeding to experiments. The animals were provided food (Harlan Teklad 2018c) and water ad lib, through the experiment. Animals were randomly grouped with 6 rats per group.
The experiments were initiated by orally dosing test compounds at 3 mg/kg in volume of 10 ml/kg. Rats from control group were gavaged with the same volume of vehicle (water). After dosing, rats were placed in metabolic cages for 16 hrs (overnight). Food and water consumption were monitored. After sixteen hours, feces and urine were collected. The percent of fecal water was measured by weighing fecal samples before and after drying.
Representative data of % fecal water content are shown in Table 12 (data are expressed as means, with 6 animals per data point). The differences between control and treated groups were evaluated by one way ANOVA with Dunnett post tests. Results are significant if p<0.05.

urinary sodium levels = assay: Pharmacodynamic model: effect of test compounds on urinary sodium levels; format: in vivo, rat; details: rats, several oral dose levels, corrected for sodium intake (FIGS. 3A and 3B)
Experimental: It is anticipated that the reduction of absorption of sodium from the intestine will be reflected in reduced levels of sodium in the urine. To test this, the protocols in Example 13 were repeated, but urine was collected in addition to feces. Urine sodium levels were analyzed by ion chromatography (IC), and the amound of sodium excreted in the urine was corrected for variations in sodium intake by measuring food consumption.

[2] = Determination of compound Cmax and AUC; format: in vivo; details: rat; Sprague-Dawley rats, oral gavage, serum 0.5-4 h; actual oral dose (mg/kg) given
Summary of the method: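 Sprague-Dawley rats dosed orally by gavage at 2.5 mg/kg; serum sampled at 0.5, 1, 2 and 4 h. Acetonitrile protein precipitation, then LC/MS/MS quantitation against a standard curve.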

[3] = system: gastrointestinal motility; assay: Restoration of gastrointestinal motility in opioid induced constipation (loperamide); format: in vivo, mice; details: vehicle oral / loperamide s.c. (0.3 to 6 mg/kg), 30-minute period
[4] = OK cells expressing rat NHE-3, 0-30 uM test compound, 5 uM EIPA

T1 sequence (P26433 29-831): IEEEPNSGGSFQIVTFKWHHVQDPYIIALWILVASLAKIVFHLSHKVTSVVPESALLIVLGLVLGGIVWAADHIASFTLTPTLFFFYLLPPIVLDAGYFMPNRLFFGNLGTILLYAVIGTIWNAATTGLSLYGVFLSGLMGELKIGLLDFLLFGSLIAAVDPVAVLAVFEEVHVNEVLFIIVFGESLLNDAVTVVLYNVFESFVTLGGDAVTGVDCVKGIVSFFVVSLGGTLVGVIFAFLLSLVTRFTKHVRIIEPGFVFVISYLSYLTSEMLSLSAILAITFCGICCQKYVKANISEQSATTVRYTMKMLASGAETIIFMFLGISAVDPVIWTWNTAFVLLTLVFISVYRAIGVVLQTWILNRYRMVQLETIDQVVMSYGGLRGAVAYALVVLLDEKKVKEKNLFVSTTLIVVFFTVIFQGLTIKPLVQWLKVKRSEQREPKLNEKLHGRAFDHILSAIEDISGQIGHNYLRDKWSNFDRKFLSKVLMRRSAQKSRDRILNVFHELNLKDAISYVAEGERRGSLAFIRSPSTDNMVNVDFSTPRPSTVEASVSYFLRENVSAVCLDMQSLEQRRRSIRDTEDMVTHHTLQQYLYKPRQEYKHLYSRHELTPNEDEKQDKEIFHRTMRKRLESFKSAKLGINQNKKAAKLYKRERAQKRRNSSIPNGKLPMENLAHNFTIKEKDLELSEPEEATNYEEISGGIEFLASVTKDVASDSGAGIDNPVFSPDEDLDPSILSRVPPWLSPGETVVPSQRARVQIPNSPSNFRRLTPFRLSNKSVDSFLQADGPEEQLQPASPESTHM

Row | SMILES | % FA [1] [%] | % Fecal water (% of control) (fecal water content) | % Fecal water (fecal water content) [%] | other results
1 | OC[C@H]1O[C@@H](O[C@@H]2[C@@H](CO)OC(O)(CO)[C@H]2O)[C@H](O)[C@@H](O)[C@H]1O (mixture of isomers) [lactulose, reference compound] | 0.6 | – | – | –
2 | CN1Cc2c(Cl)cc(Cl)cc2[C@H](c2ccc(S(=O)(=O)NCCOCCOCCNC(=O)CCC(=O)NCCOCCOCCNS(=O)(=O)c3ccc([C@@H]4CN(C)Cc5c(Cl)cc(Cl)cc54)cc3)cc2)C1 (single isomer, unassigned) [Example 200, N1,N4-bis(2-(2-(2-(4-((S or R)-6,8-dichloro-2-methyl-1,2,3,4-tetrahydroisoquinolin-4-yl)phenylsulfonamido)ethoxy)ethoxy)ethyl)succinamide bis-hydrochloride salt] | – | 124% of control | 62 | IC50 (rat NHE-3; [4]): < 100 nM
3 | CN1Cc2c(Cl)cc(Cl)cc2[C@H](c2ccc(S(=O)(=O)NCCOCCOCCNC(=O)COCC(=O)NCCOCCOCCNS(=O)(=O)c3ccc([C@@H]4CN(C)Cc5c(Cl)cc(Cl)cc54)cc3)cc2)C1 (single isomer, unassigned) [Example 201, 2,2′-oxybis(N-(2-(2-(2-(4-((S or R)-6,8-dichloro-2-methyl-1,2,3,4-tetrahydroisoquinolin-4-yl)phenylsulfonamido)ethoxy)ethoxy)ethyl)acetamide) bis-hydrochloride salt] | – | 127% of control | 63 | IC50 (rat NHE-3; [4]): < 100 nM; amount of sodium excreted in the urine (urinary sodium levels): diminishes significantly and dose dependently
4 | CN1Cc2c(Cl)cc(Cl)cc2[C@H](c2ccc(S(=O)(=O)NCCOCCOCCOCCNC(=O)NCCOCCOCCOCCNS(=O)(=O)c3ccc([C@@H]4CN(C)Cc5c(Cl)cc(Cl)cc54)cc3)cc2)C1 (single isomer, unassigned) [Example 250, (S or R)—N,N′-(13-oxo-3,6,9,17,20,23-hexaoxa-12,14-diazapentacosane-1,25-diyl)bis(4-((S or R)-6,8-dichloro-2-methyl-1,2,3,4-tetrahydroisoquinolin-4-yl)benzenesulfonamide)] | – | 120% of control | 60 | IC50 (rat NHE-3): < 100 nM
5 | CN1Cc2c(Cl)cc(Cl)cc2C(c2ccc(S(=O)(=O)NCCOCCOCCNC(=O)CCC(=O)NCCOCCOCCNS(=O)(=O)c3ccc(C4CN(C)Cc5c(Cl)cc(Cl)cc54)cc3)cc2)C1 (stereo not shown) [Example 177, N1,N4-bis(2-(2-(2-(4-(6,8-dichloro-2-methyl-1,2,3,4-tetrahydroisoquinolin-4-yl)phenylsulfonamido)ethoxy)ethoxy)ethyl)succinamide] | – | 121% of control | 60 | rat NHE-3 Average pIC50 (rat NHE-3): >7; AUC [2]: < 4 ng·h/mL; Cmax [2]: < 3.2 ng/mL
6 | CN1Cc2c(Cl)cc(Cl)cc2C(c2ccc(S(=O)(=O)NCCOCCOCCNC(=O)COCC(=O)NCCOCCOCCNS(=O)(=O)c3ccc(C4CN(C)Cc5c(Cl)cc(Cl)cc54)cc3)cc2)C1 (stereo not shown) [Example 178, 2,2′-oxybis(N-(2-(2-(2-(4-(6,8-dichloro-2-methyl-1,2,3,4-tetrahydroisoquinolin-4-yl)phenylsulfonamido)ethoxy)ethoxy)ethyl)acetamide)] | – | 118% of control | 59 | rat NHE-3 Average pIC50 (rat NHE-3; [4]): 6 to 7; AUC [2]: < 2 ng·h/mL; Cmax [2]: < 2 ng/mL
7 | CN1Cc2c(Cl)cc(Cl)cc2C(c2cccc(S(=O)(=O)NCCOCCOCCNC(=O)c3ccc(C(=O)NCCOCCOCCNS(=O)(=O)c4cccc(C5CN(C)Cc6c(Cl)cc(Cl)cc65)c4)cc3)c2)C1 (stereo not shown) [Example 234, N1,N4-bis(2-(2-(2-(3-(6,8-dichloro-2-methyl-1,2,3,4-tetrahydroisoquinolin-4-yl)phenylsulfonamido)ethoxy)ethoxy)ethyl)terephthalamide] | – | 117% of control | 58 | rat NHE-3 Average pIC50 (rat NHE-3): 5 to 6; AUC [2]: < 2 ng·h/mL; Cmax [2]: < 2 ng/mL
8 | CN1Cc2c(Cl)cc(Cl)cc2C(c2cccc(S(=O)(=O)NCCOCCOCCNC(=O)NCCCCNC(=O)NCCOCCOCCNS(=O)(=O)c3cccc(C4CN(C)Cc5c(Cl)cc(Cl)cc54)c3)c2)C1 (stereo not shown) [Example 236, N,N′-(10,17-dioxo-3,6,21,24-tetraoxa-9,11,16,18-tetraazahexacosane-1,26-diyl)bis(3-(6,8-dichloro-2-methyl-1,2,3,4-tetrahydroisoquinolin-4-yl)benzenesulfonamide)] | – | 128% of control | 64 | rat NHE-3 Average pIC50 (rat NHE-3; [4]): >7
9 | CN1Cc2c(Cl)cc(Cl)cc2C(c2cccc(S(=O)(=O)NCCOCCOCCNC(=O)Nc3ccc(NC(=O)NCCOCCOCCNS(=O)(=O)c4cccc(C5CN(C)Cc6c(Cl)cc(Cl)cc65)c4)cc3)c2)C1 (stereo not shown) [Example 237, N,N′-(2,2′-(2,2′-(2,2′-(1,4-phenylenebis(azanediyl))bis(oxomethylene)bis(azanediyl)bis(ethane-2,1-diyl))bis(oxy)bis(ethane-2,1-diyl))bis(oxy)bis(ethane-2,1-diyl))bis(3-(6,8-dichloro-2-methyl-1,2,3,4-tetrahydroisoquinolin-4-yl)benzenesulfonamide)] | – | 120% of control | 60 | rat NHE-3 Average pIC50 (rat NHE-3; [4]): >7
10 | C=CCc1ccccc1OCC(O)CNC(C)C (stereo not shown) [alprenolol] | 96 | – | – | –
11 | O=C(O)P(=O)(O)O [foscarnet] | 17 | – | – | –
12 | CN(C)C(=O)C(CCN1CCC(O)(c2ccc(Cl)cc2)CC1)(c1ccccc1)c1ccccc1 [loperamide, reference compound] | – | – | – | length of the small intestine travelled by the Evans Blue dye front [3]: ~25%
13 | OC[C@@H](O)[C@@H](O)[C@H](O)[C@H](O)CO [mannitol, Mannitol, reference compound] | 26 | – | – | –
14 | Cc1ccccc1N1C(=O)c2cc(S(N)(=O)=O)c(Cl)cc2NC1C (stereo not shown) [metolazone, Metolazone, reference compound] | 64 | – | – | –
15 | O=C(O)c1cc(/N=N/c2ccc(O)c(C(=O)O)c2)ccc1O [olsalazine] | 2.3 | – | – | –
16 | C=CCOc1ccccc1OCC(O)CNC(C)C (stereo not shown) [oxprenolol] | 97 | – | – | –
17 | Cc1cc(=O)n(-c2ccccc2)n1C [phenazone] | 97 | – | – | –
18 | CC(C)NCC(O)COc1cccc2[nH]ccc12 (stereo not shown) [pindolol] | 92 | – | – | –
19 | CC(=O)Nc1ccc(OCC(O)CNC(C)C)cc1 (stereo not shown) [practolol] | 95 | – | – | –
20 | OC[C@H]1O[C@H](OC[C@H]2O[C@H](O[C@]3(CO)O[C@H](CO)[C@@H](O)[C@@H]3O)[C@H](O)[C@@H](O)[C@@H]2O)[C@H](O)[C@@H](O)[C@H]1O [raffinose] | 0.3 | – | – | –
21 | O=C(O)c1cc(/N=N/c2ccc(S(=O)(=O)Nc3ccccn3)cc2)ccc1O [sulfasalazine, reference compound] | 12 | – | – | –
22 | CCN1CCCC1CNC(=O)c1cc(S(N)(=O)=O)ccc1OC (stereo not shown) [sulpiride] | 36 | – | – | –
23 | NC[C@H]1CC[C@H](C(=O)O)CC1 [tranexamic acid] | 55 | – | – | –
